Experimental data published in ChEMBL document CHEMBL1201862, “PubChem BioAssay data set” (2004).
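Growth conditions: 96-well plates. Treatment: test compound, 48 hours, 5 concentrations. Analysis: linear interpolation between bracketing concentrations; unreached endpoints set to highest concentration. Here, GI50 denotes the concentration required for 50% inhibition of growth.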 Activity calls are given as the source filed them. Cut-off read from the data, not from the text of the source: active = GI50 up to about 1.1 µM and inactive = higher.

Tests used:
Test in all cases: inhibition of tumour cell growth, NCI panel, 48 h
A498 = test system: A498
ACHN = test system: ACHN
BT-549 = test system: BT-549
EKVX = test system: EKVX
HCT-116 = test system: HCT-116
HCT-15 = test system: HCT-15
HL-60 = test system: HL-60
HT-29 = test system: HT-29
M14 = test system: M14
MCF7 = test system: MCF7
MDA-MB-435 = test system: MDA-MB-435
Malme-3M = test system: Malme-3M
NCI-H226 = test system: NCI-H226
NCI-H522 = test system: NCI-H522
OVCAR-5 = test system: OVCAR-5
OVCAR-8 = test system: OVCAR-8
SK-OV-3 = test system: SK-OV-3
U-251 = test system: U-251
UACC-257 = test system: UACC-257
UO-31 = test system: UO-31

Structure (SMILES): COc1ccc(-c2nnc(CCCCCCCCc3nnc(-c4ccc(OC)cc4)n3N)n2N)cc1
- GI50 (A498): > 65.3 µM (inactive)
- GI50 (ACHN): > 100 µM (inactive)
- GI50 (BT-549): 58.5 µM (inactive)
- GI50 (EKVX): > 100 µM (inactive)
- GI50 (HCT-116): > 66.1 µM (inactive)
- GI50 (HCT-15): > 100 µM
- GI50 (HL-60): > 100 µM (inactive)
- GI50 (HT-29): > 100 µM (inactive)
- GI50 (M14): > 100 µM (inactive)
- GI50 (MCF7): > 100 µM (inactive)
- GI50 (MDA-MB-435): > 100 µM (inactive)
- GI50 (Malme-3M): > 100 µM (inactive)
- GI50 (NCI-H226): > 100 µM (inactive)
- GI50 (NCI-H522): > 56.5 µM (inactive)
- GI50 (OVCAR-5): > 100 µM (inactive)
- GI50 (OVCAR-8): > 31.6 µM (inactive)
- GI50 (SK-OV-3): > 56.2 µM (inactive)
- GI50 (U-251): > 56.9 µM (inactive)
- GI50 (UACC-257): > 100 µM (inactive)
- GI50 (UO-31): > 100 µM (inactive)

Structure (SMILES): CN(C)CCNC(=O)c1cccc2c1Oc1c(cccc1[N+](=O)[O-])O2
- GI50 (A498): 1.37 µM (inactive)
- GI50 (ACHN): 0.335 µM (active)
- GI50 (BT-549): 1.9 µM (inactive)
- GI50 (EKVX): 3.22 µM (inactive)
- GI50 (HCT-116): 0.817 µM (active)
- GI50 (HCT-15): 0.544 µM
- GI50 (HL-60): 0.306 µM (active)
- GI50 (HT-29): 1.41 µM (inactive)
- GI50 (M14): 2.64 µM (inactive)
- GI50 (MCF7): 0.957 µM (active)
- GI50 (MDA-MB-435): 3.44 µM (inactive)
- GI50 (Malme-3M): 1.33 µM (inactive)
- GI50 (NCI-H226): 0.288 µM (active)
- GI50 (NCI-H522): 0.975 µM (active)
- GI50 (OVCAR-5): 2.18 µM (inactive)
- GI50 (OVCAR-8): 1.71 µM (inactive)
- GI50 (U-251): 0.787 µM (active)
- GI50 (UACC-257): 2 µM (inactive)
- GI50 (UO-31): 0.885 µM (active)

Structure (SMILES): CN(C)CCNC(=O)c1cccc2ccc(-c3ccc(O)cc3)nc12
- GI50 (A498): 2.64 µM (inactive)
- GI50 (ACHN): 1.37 µM (inactive)
- GI50 (BT-549): 6.82 µM (inactive)
- GI50 (EKVX): 8.36 µM (inactive)
- GI50 (HCT-116): 0.698 µM (active)
- GI50 (HCT-15): 2.75 µM
- GI50 (HL-60): 0.847 µM (active)
- GI50 (HT-29): 3.13 µM (inactive)
- GI50 (M14): 0.664 µM (active)
- GI50 (MCF7): 0.859 µM (active)
- GI50 (MDA-MB-435): 3.74 µM (inactive)
- GI50 (Malme-3M): 1.05 µM (active)
- GI50 (NCI-H226): 1.93 µM (inactive)
- GI50 (NCI-H522): 1.36 µM (inactive)
- GI50 (OVCAR-5): 1.71 µM (inactive)
- GI50 (OVCAR-8): 1.38 µM (inactive)
- GI50 (SK-OV-3): 3.01 µM (inactive)
- GI50 (U-251): 2.06 µM (inactive)
- GI50 (UACC-257): 2.61 µM (inactive)
- GI50 (UO-31): 2.39 µM (inactive)

Structure (SMILES): Oc1ccc2cc(Br)ccc2c1-c1c(O)ccc2ccc(Br)cc12
- GI50 (A498): 17.3 µM (inactive)
- GI50 (ACHN): 14.8 µM (inactive)
- GI50 (BT-549): 14.7 µM (inactive)
- GI50 (HCT-116): 14.4 µM (inactive)
- GI50 (HCT-15): 14.9 µM
- GI50 (HL-60): 5.42 µM (inactive)
- GI50 (HT-29): 3.07 µM (inactive)
- GI50 (M14): 17.8 µM (inactive)
- GI50 (MCF7): 13 µM (inactive)
- GI50 (MDA-MB-435): 16.2 µM (inactive)
- GI50 (Malme-3M): 13.4 µM (inactive)
- GI50 (NCI-H226): 13.2 µM (inactive)
- GI50 (NCI-H522): 15.2 µM (inactive)
- GI50 (OVCAR-5): 16.9 µM (inactive)
- GI50 (OVCAR-8): 14.4 µM (inactive)
- GI50 (SK-OV-3): 12.2 µM (inactive)
- GI50 (U-251): 14.1 µM (inactive)
- GI50 (UACC-257): 18.5 µM (inactive)
- GI50 (UO-31): 15.3 µM (inactive)

Structure (SMILES): CO[C@H]1C[C@@H]2CC[C@@H](C)[C@@](O)(O2)C(=O)C(=O)N2CCCC[C@H]2C(=O)O[C@H]([C@H](C)C[C@@H]2CC[C@@H](OC(=O)C(C)(CO)CO)[C@H](OC)C2)CC(=O)[C@H](C)/C=C(\C)[C@@H](O)[C@@H](OC)C(=O)[C@H](C)C[C@H](C)/C=C/C=C/C=C/1C [TEMSIROLIMUS]
- GI50 (A498): 0.0363 µM (active)
- GI50 (ACHN): 0.00723 µM (active)
- GI50 (BT-549): 0.00904 µM (active)
- GI50 (EKVX): 0.0185 µM (active)
- GI50 (HCT-116): 3.26 µM (inactive)
- GI50 (HCT-15): 0.0849 µM
- GI50 (HL-60): 2.72 µM (inactive)
- GI50 (HT-29): 0.0376 µM (active)
- GI50 (M14): 0.0417 µM (active)
- GI50 (MCF7): 0.00538 µM (active)
- GI50 (MDA-MB-435): 0.0243 µM (active)
- GI50 (Malme-3M): 0.000199 µM (active)
- GI50 (NCI-H226): 0.0116 µM (active)
- GI50 (NCI-H522): 0.0802 µM (active)
- GI50 (OVCAR-5): 0.00363 µM (active)
- GI50 (OVCAR-8): 0.00388 µM (active)
- GI50 (SK-OV-3): 1.97 µM (inactive)
- GI50 (UACC-257): 1.99 µM (inactive)
- GI50 (UO-31): 0.00496 µM (active)
